Source: patent publication US20260151516A1, “NEW PET TRACER FOR IMAGING OF THE FUNCTIONAL HEPATIC RESERVE” (Medizinische Universität Innsbruck, priority 2022, published 2026)

Experiments:
[1] = Biodistribution studies incl. blocking experiments; assay type: in vivo; details: healthy BALB/c mice
Description: For biodistribution studies 6 week old female BALB/c mice (n=3) were injected with 0.1 nmol (100 μL, approx. 1 MBq) of labelled compound via the lateral tail vein and sacrificed after 10, 30, or 60 min by cervical dislocation. The mice were dissected, blood and organs (spleen, pancreas, stomach, intestine, liver, kidney, heart, lung, muscle, and bone) were weighed, and their activity measured in a γ-counter. For blocking experiments, mice were co-injected with 100 μL of a 277 mM Galactose/PBS solution. In case of [^68Ga]Ga-TRAP-GalNAc a 277 mM N-Acetylgalactose solution was used.

[2] = Partition coefficient (log D), n-Octanol/PBS; assay type: physicochemical
Description: The vials were vortexed for 5 min at 1,500 rpm and then centrifuged for 5 min at 20,000 rcf (Eppendorf Centrifuge 5424).

[3] = tested on: human serum; experiment: Protein binding in fresh human serum (Sephadex MicroSpin G-50 columns); assay type: in vitro ADME; details: 37° C., 30 min
Description: Protein binding was determined for different time points (2 min, 30 min, 60 min, 120 min) in triplicates using Sephadex MicroSpin G-50 columns (GE-Healthcare, Chicago, Illinois, USA). The columns were spun initially at 20,000 rcf for 1 min to remove the storage buffer. Then approx. 5 MBq of radioligand was added to 1 mL of fresh human serum and incubated at 37° C. At each given timepoint 25 μL of the mixture was loaded on to the column, which was then spun at 20,000 rcf for 1 min. The activity content on the column (free radioligand) and in the filtrate (protein bound fraction) was quantified in a γ-counter.

[4] = 30 min p.i., blocking with 277 mM galactose

O=C(CCP(=O)(O)CN1CCN(CP(=O)(O)CCC(=O)NCc2cn([C@@H]3O[C@H](CO)[C@H](O)[C@H](O)[C@H]3O)nn2)CCN(CP(=O)(O)CCC(=O)NCc2cn([C@@H]3O[C@H](CO)[C@H](O)[C@H](O)[C@H]3O)nn2)CC1)NCc1cn(C2O[C@H](CO)[C@H](O)[C@H](O)[C@H]2O)nn1 (stereo partly shown) [Galacto-TRAP]
Biodistribution Liver [1, 4]: 3.24±0.2 % ID/g

O=C(CCP(=O)([O-])CN1CCN(CP(=O)([O-])CCC(=O)NCc2cn([C@@H]3O[C@H](CO)[C@H](O)[C@H](O)[C@H]3O)nn2)CCN(CP(=O)([O-])CCC(=O)NCc2cn([C@@H]3O[C@H](CO)[C@H](O)[C@H](O)[C@H]3O)nn2)CC1)NCc1cn([C@@H]2O[C@H](CO)[C@H](O)[C@H](O)[C@H]2O)nn1.[68Ga+3] [[^68Ga]Ga-Galacto-TRAP]
Biodistribution Femur ([1]; 10 min p.i.): 1.11 ± 0.18 % ID/g | Biodistribution Heart ([1]; 10 min p.i.): 6.08 ± 0.51 % ID/g | Biodistribution Intestine ([1]; 10 min p.i.): 1.80 ± 0.16 % ID/g | Biodistribution Liver ([1]; 10 min p.i.): 12.2 ± 1.4 % ID/g | Biodistribution Lung ([1]; 10 min p.i.): 1.97 ± 0.07 % ID/g | Biodistribution Muscle ([1]; 10 min p.i.): 3.25 ± 0.27 % ID/g | Biodistribution Pancreas ([1]; 10 min p.i.): 1.20 ± 0.03 % ID/g | Biodistribution Spleen ([1]; 10 min p.i.): 5.58 ± 0.17 % ID/g | Biodistribution Stomach ([1]; 10 min p.i.): 1.17 ± 0.05 % ID/g | Biodistribution Blood ([1]; 30 min p.i.): 0.47 ± 0.16 % ID/g | Biodistribution Femur ([1]; 30 min p.i.): 0.44 ± 0.01 % ID/g | Biodistribution Heart ([1]; 30 min p.i.): 5.44 ± 0.75 % ID/g | Biodistribution Intestine ([1]; 30 min p.i.): 0.79 ± 0.15 % ID/g | Biodistribution Kidneys ([1]; 30 min p.i.): 0.88 ± 0.07 % ID/g | Biodistribution Liver ([1]; 30 min p.i.): 5.02 ± 1.08 % ID/g | Biodistribution Lung ([1]; 30 min p.i.): 0.75 ± 0.16 % ID/g | Biodistribution Pancreas ([1]; 30 min p.i.): 0.49 ± 0.07 % ID/g | Biodistribution Spleen ([1]; 30 min p.i.): 2.17 ± 0.54 % ID/g | Biodistribution Stomach ([1]; 30 min p.i.): 0.53 ± 0.05 % ID/g | Biodistribution Blood [1, 4]: 0.43 ± 0.14 % ID/g | Biodistribution Femur [1, 4]: 0.38 ± 0.06 % ID/g | Biodistribution Heart [1, 4]: 3.24 ± 0.19 % ID/g | Biodistribution Intestine [1, 4]: 0.67 ± 0.15 % ID/g | Biodistribution Kidneys [1, 4]: 0.75 ± 0.11 % ID/g | Biodistribution Liver [1, 4]: 5.10 ± 0.72 % ID/g | Biodistribution Lung [1, 4]: 0.68 ± 0.08 % ID/g | Biodistribution Muscle [1, 4]: 1.35 ± 0.16 % ID/g | Biodistribution Pancreas [1, 4]: 0.43 ± 0.02 % ID/g | Biodistribution Spleen [1, 4]: 1.84 ± 0.14 % ID/g | Biodistribution Stomach [1, 4]: 0.48 ± 0.05 % ID/g | Biodistribution Blood ([1]; 60 min p.i.): 0.11 ± 0.03 % ID/g | Biodistribution Femur ([1]; 60 min p.i.): 0.10 ± 0.04 % ID/g | Biodistribution Heart ([1]; 60 min p.i.): 4.84 ± 0.66 % ID/g | Biodistribution Intestine ([1]; 60 min p.i.): 0.14 ± 0.02 % ID/g | Biodistribution Kidneys ([1]; 60 min p.i.): 0.60 ± 0.06 % ID/g | Biodistribution Lung ([1]; 60 min p.i.): 0.12 ± 0.01 % ID/g | Biodistribution Muscle ([1]; 60 min p.i.): 0.35 ± 0.05 % ID/g | Biodistribution Pancreas ([1]; 60 min p.i.): 0.12 ± 0.02 % ID/g | Biodistribution Spleen ([1]; 60 min p.i.): 0.52 ± 0.23 % ID/g | Biodistribution Stomach ([1]; 60 min p.i.): 0.11 ± 0.01 % ID/g | logD [2]: −4.16±0.09

O=C(CCP(=O)([O-])CN1CCN(CP(=O)([O-])CCC(=O)NCc2cn(CCOCCOCCO[C@@H]3O[C@H](CO)[C@@H](O)[C@H](O)[C@H]3O)nn2)CCN(CP(=O)([O-])CCC(=O)NCc2cn(CCOCCOCCO[C@@H]3O[C@H](CO)[C@@H](O)[C@H](O)[C@H]3O)nn2)CC1)NCc1cn(CCOCCOCCO[C@@H]2O[C@H](CO)[C@@H](O)[C@H](O)[C@H]2O)nn1.[68Ga+3] [[^68Ga]Ga-TRAP-Gluco, reference compound]
Protein binding (%) [3]: 3.3 ± 2.0% | Biodistribution Blood ([1]; 10 min p.i.): 4.53 ± 0.52 % ID/g | Biodistribution Femur ([1]; 10 min p.i.): 0.86 ± 0.10 % ID/g | Biodistribution Intestine ([1]; 10 min p.i.): 1.10 ± 0.12 % ID/g | Biodistribution Kidneys ([1]; 10 min p.i.): 10.20 ± 1.23 % ID/g | Biodistribution Liver ([1]; 10 min p.i.): 1.06 ± 0.07 % ID/g | Biodistribution Lung ([1]; 10 min p.i.): 2.84 ± 0.13 % ID/g | Biodistribution Muscle ([1]; 10 min p.i.): 0.99 ± 0.10 % ID/g | Biodistribution Pancreas ([1]; 10 min p.i.): 1.03 ± 0.08 % ID/g | Biodistribution Spleen ([1]; 10 min p.i.): 0.94 ± 0.03 % ID/g | Biodistribution Stomach ([1]; 10 min p.i.): 1.59 ± 0.44 % ID/g | Biodistribution Blood ([1]; 30 min p.i.): 1.40 ± 0.50 % ID/g | Biodistribution Femur ([1]; 30 min p.i.): 0.15 ± 0.14 % ID/g | Biodistribution Heart ([1]; 30 min p.i.): 1.07 ± 0.34 % ID/g | Biodistribution Intestine ([1]; 30 min p.i.): 0.57 ± 0.20 % ID/g | Biodistribution Kidneys ([1]; 30 min p.i.): 3.95 ± 1.12 % ID/g | Biodistribution Liver ([1]; 30 min p.i.): 0.51 ± 0.17 % ID/g | Biodistribution Lung ([1]; 30 min p.i.): 0.32 ± 0.10 % ID/g | Biodistribution Muscle ([1]; 30 min p.i.): 0.35 ± 0.12 % ID/g | Biodistribution Pancreas ([1]; 30 min p.i.): 0.47 ± 0.18 % ID/g | Biodistribution Spleen ([1]; 30 min p.i.): 0.41 ± 0.13 % ID/g | Biodistribution Stomach ([1]; 30 min p.i.): 0.61 ± 0.19 % ID/g | Biodistribution Blood ([1]; 60 min p.i.): 0.16 ± 0.06 % ID/g | Biodistribution Femur ([1]; 60 min p.i.): 0.08 ± 0.03 % ID/g | Biodistribution Heart ([1]; 60 min p.i.): 0.08 ± 0.02 % ID/g | Biodistribution Intestine ([1]; 60 min p.i.): 0.14 ± 0.05 % ID/g | Biodistribution Kidneys ([1]; 60 min p.i.): 1.87 ± 0.33 % ID/g | Biodistribution Liver ([1]; 60 min p.i.): 0.15 ± 0.02 % ID/g | Biodistribution Lung ([1]; 60 min p.i.): 0.31 ± 0.03 % ID/g | Biodistribution Muscle ([1]; 60 min p.i.): 0.05 ± 0.01 % ID/g | Biodistribution Pancreas ([1]; 60 min p.i.): 0.09 ± 0.03 % ID/g | Biodistribution Spleen ([1]; 60 min p.i.): 0.11 ± 0.01 % ID/g | Biodistribution Stomach ([1]; 60 min p.i.): 0.09 ± 0.03 % ID/g | logD [2]: −3.8 ± 0.08
